{"source": "paper PMC11489206", "about": "“Transport of perfluoroalkyl substances across human induced pluripotent stem cell-derived intestinal epithelial cells in comparison with primary human intestinal epithelial cells and Caco-2 cells” (Archives of Toxicology, 2024)", "key": {"hiPSC-derived IEC layers [1]": {"system": "hiPSC-derived IEC layers", "assay": "Barrier integrity: apical to basolateral translocation of lucifer yellow", "format": "in vitro ADME, human", "details": "terminally differentiated IECs; 500 µg/ml apical, 3 hours; data not shown", "method": "The medium was refreshed every 2–3 days.\nTo determine barrier integrity of the hiPSC-derived IEC layers, apical to basolateral translocation of lucifer yellow was measured. 500 µg/ml Lucifer yellow, in differentiation medium, containing EGF, Forskolin, 5-aza-2′-deoxycytidine, PD98059, A-83-01, was added to the apical compartment (400 µl/insert) and incubated at 37 °C for 3 hours. 50 µl medium was collected from the basolateral compartment at 30 min intervals. The fluorescence intensity was measured at 485 nm excitation and 530 nm emission wavelength using a microplate reader (Synergy HT, BioTek, Winooski, VT)."}, "[2]": {"assay": "Transport study across EpiIntestinal microtissues", "details": "human", "method": "The human EpiIntestinal small intestinal microtissues, consisting of epithelial cells and an underlying lamina propria containing intestinal fibroblasts, were obtained from MatTek Life Sciences (Ashland, USA). Cell culture inserts (8.8 mm ID) were placed in 12-well plates and cells were maintained in 100 µl maintenance medium (MatTek Life Sciences) in the apical compartment and 5 ml maintenance medium in the basolateral compartment upon arrival. The transport studies were performed 1 day after arrival.\n(§1) Transport studies were performed in Caco-2 cells, hiPSC-derived IECs and EpiIntestinal microtissues. To that end, Caco-2 cell layers were differentiated for 21 days and hiPSCs were differentiated into IEC layers for 26 days, as described above. EpiIntestinal microtissues were subjected to transport studies 1 day after arrival. […] For all models, PFAS transport was assessed in apical to basolateral, and basolateral to apical direction using HBSS containing a mixture of PFASs containing 1 µM of each PFAS. See Supplementary Data for a detailed description of the method used for the transport studies of the model compounds and PFASs.\n(§2) Prior to exposure to the transport study compounds, the cells were washed with transport medium (HBSS; Sigma). […] 100 µL aliquots were collected from the basolateral compartment and replaced with the same volume HBSS at settled time points (0, 15, 30 and 60 min). For basolateral to apical transport in the EpiIntestinal microtissues, 0.2 mL HBSS was added to the apical compartment and 0.5 mL HBSS containing a mixture of PFASs containing 1 µM of each PFAS, was added to the basolateral compartment. 100 µL aliquots were collected from the apical compartment and replaced with the same volume of HBSS at settled time points (0, 15, 30 and 60 min). For apical to basolateral transport across the Caco-2 cell layers and hiPSC-derived IEC layers, 1.2 mL HBSS was added to the basolateral compartment and 0.4 mL HBSS containing either model compounds (10 µM) or a mixture of PFASs containing 1 µM of each PFAS, was added to the apical compartment. 100 µL aliquots were collected from the basolateral compartment and replaced with the same volume of HBSS at settled time points (0, 7.5, 15, 30 and 60 min for the model compounds with both models and the PFASs with the hiPSC-derived IEC layers and 0, 15, 30 and 60 min for PFASs with the Caco-2 cell layers). For basolateral to apical transport, 0.4 mL HBSS was added to the apical compartment and 1.2 mL HBSS containing 10 µM of the model compounds or a mixture of PFASs containing 1 µM of each PFAS, was added to the basolateral compartment. 100 µL aliquots were collected from the apical compartment and replaced with the same volume of HBSS at settled time points (0, 7.5, 15, 30 and 60 min for the model compounds with both models and the PFASs with the hiPSC-derived IEC layers and 0, 15, 30 and 60 min for PFASs with the Caco-2 cell layers). After 60 minutes, all liquid was collected from the apical and basolateral compartment and the cells were lysed in 200 µL RIPA buffer (Thermo Fisher Scientific), and chemicals were quantified in the different compartments (apical, basolateral and cells) in order to calculate the mass balance.\n(§3) The apparent permeability coefficient (Papp, cm/s) was calculated using the following equation: […]\nwhere A is the surface area (cm^2), dQ is the amount of the compound transported (nmol) over the respective time interval dt (s) and C0 is the initial concentration in the donor compartment (µM)."}, "[3]": {"assay": "Transport study across hiPSC-derived IEC layers", "details": "human", "method": "For differentiation into IECs, definitive endoderm cells were subsequently differentiated into intestinal stem cells by changing medium into DMEM/F12 containing 2% fetal bovine serum, 1% GlutaMAX (Gibco) and 250 ng/ml FGF2 (R&D Systems). After 4 days, cells were dissociated using Accutase and seeded onto polyester Transwell inserts (0.4 µm, Corning) coated with Growth Factor Reduced Matrigel #356231. Cells were cultured for 7 days in intestinal differentiation medium (DMEM/F-12 containing 2% fetal bovine serum, 1% non-essential amino acids (Gibco), 1 × B27 (Gibco), 1 × N2 (Gibco), 1% penicillin/streptomycin (Gibco) and 2 mM L-glutamine (Gibco)) supplemented with 20 ng/ml EGF (R&D Systems) and 30 µM Forskolin (Sigma). ROCK inhibitor, y-27632 (final concentration 10 µM; Stem Cell Technologies), was added during the initial 24 h after seeding to reduce cell death. The cells were subsequently cultured for 12 days in intestinal differentiation medium supplemented with 20 ng/ml EGF, 30 µM Forskolin, 5 µM 5-aza-2′-deoxycytidine (Sigma), 20 µM PD98059 (Stem Cell Technologies) and 0.5 µM A-83–01 (Sigma). The medium was refreshed every 2–3 days. Barrier integrity was determined by measuring apical to basolateral translocation of Lucifer yellow (see Supplementary Data for a detailed description).\nas §1\nas §2, with “layers).” for “layers). After 60 minutes, all liquid was collected from the apical and basolateral compartment and the cells were lysed in 200 µL RIPA buffer (Thermo Fisher Scientific), and chemicals were quantified in the different compartments (apical, basolateral and cells) in order to calculate the mass balance.”"}, "[4]": {"assay": "Transport study across Caco-2 cell layers", "details": "human, Caco-2", "method": "(§4) Human colorectal adenocarcinoma cells (Caco-2, HTB-37) were obtained from American Type Culture Collection (ATCC, Manassas, VA). Cells were cultured in a humidified incubator (37°C, 5% CO2) in Dulbecco’s modified Eagle’s medium (DMEM) supplemented with 10% heat-inactivated fetal bovine serum (Gibco, Thermo Fisher Scientific, Waltham, MA), 1% non-essential amino acids (Gibco) and 1% penicillin/streptomycin (Sigma). For experiments, Caco-2 cells below passage number 50 were used within 10 passages. They were harvested at 80% confluence using Trypsin/EDTA (0.25%/0.05%; PAN Biotech, Aidenbach, Germany) and seeded at a density of 4 × 10^5 cells/cm^2 into inserts with a polycarbonate membrane (0.4 µm pore, Corning, New York, NY). After 21 days of differentiation (using 500 µl cell culture medium in the apical and 1500 µl in the basolateral compartment), monolayer integrity was determined by measuring transepithelial electrical resistance (TEER) with a Millicell ERS Volt-Ohm meter (Millipore, Bedford, MA).\nas §1, §2, §3"}, "Caco-2 cell layers": {"system": "Caco-2 cell layers", "assay": "Transport study across Caco-2 cell layers", "details": "Caco-2 model; PFAS mixture 1 µM each; not detected in the basolateral compartment", "method": "as §4, §1, §2, §3"}, "hiPSC-derived IEC layers [5]": {"system": "hiPSC-derived IEC layers", "design": "method as in Kabeya et al. ([2020])", "details": "apical to basolateral, ref Kabeya et al. ([2020]); cited from earlier work"}, "[6]": {"details": "ref Ayehunie et al. (2005); cited from earlier work"}, "EpiIntestinal model": {"system": "EpiIntestinal model", "details": "apical to basolateral, ref Ayehunie et al. (2005); cited from earlier work"}, "Caco-2 model": {"system": "Caco-2 model", "details": "cited from earlier work"}}, "note": "Read-outs that look alike come from different tables or passages of the source. Marks after values point to notes of the source that are not given here.", "data": [{"molecule": "lucifer yellow", "values": [{"measurement": "Apical to basolateral transport of lucifer yellow", "setting": "hiPSC-derived IEC layers [1]", "value": "no quantifiable"}]}, {"molecule": "O=C(O)C(F)(OC(F)(F)C(F)(F)C(F)(F)F)C(F)(F)F", "note": "(stereo not shown) [HFPO-DA, hexafluoropropylene oxide dimer acid]", "values": [{"measurement": "Papp A→B at 60 min, 1 µM", "setting": "[2]", "value": "1.16 ± 0.19", "unit": "×10⁻⁶ cm/s"}, {"measurement": "Papp B→A at 60 min, 1 µM", "setting": "[2]", "value": "1.04 ± 0.09", "unit": "×10⁻⁶ cm/s"}, {"measurement": "efflux ratio at 60 min, 1 µM", "setting": "[2]", "value": 0.9}, {"measurement": "Papp A→B at 60 min, 1 µM", "setting": "[3]", "value": "3.09 ± 0.09", "unit": "×10⁻⁶ cm/s"}, {"measurement": "Papp B→A at 60 min, 1 µM", "setting": "[3]", "value": "4.49 ± 0.27", "unit": "×10⁻⁶ cm/s"}, {"measurement": "efflux ratio at 60 min, 1 µM", "setting": "[3]", "value": 1.45}, {"measurement": "Papp B→A at 60 min, 1 µM", "setting": "[4]", "value": "1.23 ± 0.25", "unit": "×10⁻⁶ cm/s"}, {"measurement": "Transport (in words)", "setting": "Caco-2 cell layers", "value": "no transport"}]}, {"molecule": "CCOC(=O)[C@H](CCc1ccccc1)N[C@@H](C)C(=O)N1CCC[C@H]1C(=O)O", "note": "[Enalapril, enalapril]", "values": [{"measurement": "Papp A→B at 60 min, 10 µM", "setting": "[3]", "value": "2.95 ± 0.41", "unit": "×10⁻⁶ cm/s"}, {"measurement": "Papp B→A at 60 min, 10 µM", "setting": "[3]", "value": "3.68 ± 0.1", "unit": "×10⁻⁶ cm/s"}, {"measurement": "efflux ratio at 60 min, 10 µM", "setting": "[3]", "value": 1.25}, {"measurement": "Papp A→B at 60 min, 10 µM", "setting": "[4]", "value": "0.28 ± 0.04", "unit": "×10⁻⁶ cm/s"}, {"measurement": "Papp B→A at 60 min, 10 µM", "setting": "[4]", "value": "0.43 ± 0.05", "unit": "×10⁻⁶ cm/s"}, {"measurement": "efflux ratio at 60 min, 10 µM", "setting": "[4]", "value": 1.55}, {"measurement": "Average Papp A–B", "setting": "hiPSC-derived IEC layers [5]", "value": "1.93 ± 0.46 × 10^–6 cm/s"}, {"measurement": "Fa (fraction absorbed in humans)", "setting": "[6]", "value": 40, "unit": "%"}, {"measurement": "Average Papp A–B", "setting": "EpiIntestinal model", "value": "0.4 ± 0.2^a × 10^–6 cm/s"}, {"measurement": "Average Papp A - B", "setting": "Caco-2 model; ref Ayehunie et al. 2018", "value": 0.2, "unit": "×10⁻⁶ cm/s"}, {"measurement": "Average Papp A - B", "setting": "Caco-2 model; ref Grès et al. 1998", "value": 0.62, "unit": "×10⁻⁶ cm/s"}, {"measurement": "Average Papp A - B", "setting": "Caco-2 model; ref Kabeya et al. 2020", "value": 0.19, "unit": "×10⁻⁶ cm/s"}, {"measurement": "Average Papp A - B", "setting": "Caco-2 model; ref Logoyda et al. 2018", "value": 1.31, "unit": "×10⁻⁶ cm/s"}]}]}
